Data taken from ChEMBL document CHEMBL2434896, “Carbonic anhydrase inhibitors. Synthesis of heterocyclic 4-substituted pyridine-3-sulfonamide derivatives and their inhibition of the human cytosolic isozymes I and II and transmembrane tumor-associated isozymes IX and XII” (Eur J Med Chem, 2013).
pKi: −log10 of the molar value. Calls of active or inactive are those of the source. The rule behind the calls is not given here.

Key:
OVCAR-4 = experiment: Growth inhibition of human OVCAR4 cells at 10 uM after 48 hrs by sulforhodamine B assay; format: functional
Malme-3M = experiment: Growth inhibition of human MALME-3M cells at 10 uM after 48 hrs by sulforhodamine B assay; format: functional; settings: read-out: GI
HCC 2998 = experiment: Growth inhibition of human HCC2998 cells at 10 uM after 48 hrs by sulforhodamine B assay; format: functional
NCI-H460 = experiment: Growth inhibition of human NCI-H460 cells at 10 uM after 48 hrs by sulforhodamine B assay; format: functional
MDA-MB-435 = experiment: Growth inhibition of human MDA-MB-435 cells at 10 uM after 48 hrs by sulforhodamine B assay; format: functional
LOX IMVI = experiment: Growth inhibition of human LOXIMVI cells at 10 uM after 48 hrs by sulforhodamine B assay; format: functional
786-0 = experiment: Growth inhibition of human 786-0 cells at 10 uM after 48 hrs by sulforhodamine B assay; format: functional
ACHN = experiment: Growth inhibition of human ACHN cells at 10 uM after 48 hrs by sulforhodamine B assay; format: functional; settings: read-out: GI
T47D = experiment: Growth inhibition of human T47D cells at 10 uM after 48 hrs by sulforhodamine B assay; format: functional; settings: read-out: GI
TK-10 = experiment: Growth inhibition of human TK10 cells at 10 uM after 48 hrs by sulforhodamine B assay; format: functional; settings: TK-10, 48 h, read-out: GI
SW-620 = experiment: Growth inhibition of human SW620 cells at 10 uM after 48 hrs by sulforhodamine B assay; format: functional; settings: SW-620, 48 h, read-out: GI
IGROV-1 = experiment: Growth inhibition of human IGROV1 cells at 10 uM after 48 hrs by sulforhodamine B assay; format: functional; settings: IGROV-1, 48 h, read-out: GI
MDA-MB-231 = experiment: Growth inhibition of human MDA-MB-231 cells at 10 uM after 48 hrs by sulforhodamine B assay; format: functional
SNB-75 = experiment: Growth inhibition of human SNB75 cells at 10 uM after 48 hrs by sulforhodamine B assay; format: functional; settings: SNB-75, 48 h, read-out: GI
UACC-62 = experiment: Growth inhibition of human UACC62 cells at 10 uM after 48 hrs by sulforhodamine B assay; format: functional; settings: UACC-62, 48 h, read-out: GI
SF-268 = experiment: Growth inhibition of human SF268 cells at 10 uM after 48 hrs by sulforhodamine B assay; format: functional
SN12C = experiment: Growth inhibition of human SN12C cells at 10 uM after 48 hrs by sulforhodamine B assay; format: functional
PC-3 = experiment: Growth inhibition of human PC3 cells at 10 uM after 48 hrs by sulforhodamine B assay; format: functional; settings: PC-3, 48 h, read-out: GI
HCT-116 = experiment: Growth inhibition of human HCT116 cells at 10 uM after 48 hrs by sulforhodamine B assay; format: functional; settings: HCT-116, 48 h, read-out: GI
SK-MEL-5 = experiment: Growth inhibition of human SK-MEL-5 cells at 10 uM after 48 hrs by sulforhodamine B assay; format: functional; settings: SK-MEL-5, 48 h, read-out: GI
Carbonic anhydrase 9 = Carbonic anhydrase 9 (Homo sapiens, UniProt Q16790); experiment: Inhibition of human carbonic anhydrase 9 after 15 mins by stopped flow CO2 hydration assay
SF-539 = experiment: Growth inhibition of human SF539 cells at 10 uM after 48 hrs by sulforhodamine B assay; format: functional; settings: SF-539, 48 h, read-out: GI
RXF 393 = experiment: Growth inhibition of human RXF393 cells at 10 uM after 48 hrs by sulforhodamine B assay; format: functional
BT-549 = experiment: Growth inhibition of human BT549 cells at 10 uM after 48 hrs by sulforhodamine B assay; format: functional; settings: BT-549, 48 h, read-out: GI
SR = experiment: Growth inhibition of human SR cells at 10 uM after 48 hrs by sulforhodamine B assay; format: functional; settings: read-out: GI
SF-295 = experiment: Growth inhibition of human SF295 cells at 10 uM after 48 hrs by sulforhodamine B assay; format: functional; settings: SF-295, 48 h, read-out: GI
UO-31 = experiment: Growth inhibition of human UO31 cells at 10 uM after 48 hrs by sulforhodamine B assay; format: functional; settings: UO-31, 48 h, read-out: GI
NCI-H322M = experiment: Growth inhibition of human NCI-H322M cells at 10 uM after 48 hrs by sulforhodamine B assay; format: functional; settings: read-out: GI
OVCAR-8 = experiment: Growth inhibition of human OVCAR8 cells at 10 uM after 48 hrs by sulforhodamine B assay; format: functional; settings: OVCAR-8, 48 h, read-out: GI
NCI-H226 = experiment: Growth inhibition of human NCI-H226 cells at 10 uM after 48 hrs by sulforhodamine B assay; format: functional; settings: NCI-H226, 48 h, read-out: GI
U-251 = experiment: Growth inhibition of human U251 cells at 10 uM after 48 hrs by sulforhodamine B assay; format: functional; settings: U-251, 48 h, read-out: GI
OVCAR-3 = experiment: Growth inhibition of human OVCAR3 cells at 10 uM after 48 hrs by sulforhodamine B assay; format: functional
CAKI-1 = experiment: Growth inhibition of human CAKI-1 cells at 10 uM after 48 hrs by sulforhodamine B assay; format: functional; settings: CAKI-1, 48 h, read-out: GI
A549 = experiment: Growth inhibition of human A549/ATCC cells at 10 uM after 48 hrs by sulforhodamine B assay; format: functional; settings: A549, 48 h, read-out: GI
SK-OV-3 = experiment: Growth inhibition of human SKOV3 cells at 10 uM after 48 hrs by sulforhodamine B assay; format: functional
SK-MEL-2 = experiment: Growth inhibition of human SK-MEL-2 cells at 10 uM after 48 hrs by sulforhodamine B assay; format: functional
DU-145 = experiment: Growth inhibition of human DU145 cells at 10 uM after 48 hrs by sulforhodamine B assay; format: functional
MOLT-4 = experiment: Growth inhibition of human MOLT4 cells at 10 uM after 48 hrs by sulforhodamine B assay; format: functional; settings: MOLT-4, 48 h, read-out: GI
COLO 205 = experiment: Growth inhibition of human COLO205 cells at 10 uM after 48 hrs by sulforhodamine B assay; format: functional
MCF7 = experiment: Growth inhibition of human MCF7 cells at 10 uM after 48 hrs by sulforhodamine B assay; format: functional
A498 = experiment: Growth inhibition of human A498 cells at 10 uM after 48 hrs by sulforhodamine B assay; format: functional; settings: A498, 48 h, read-out: GI
CCRF-CEM = experiment: Growth inhibition of human CCRF-CEM cells at 10 uM after 48 hrs by sulforhodamine B assay; format: functional
Hs-578T = experiment: Growth inhibition of human Hs 578T cells at 10 uM after 48 hrs by sulforhodamine B assay; format: functional
OVCAR-5 = experiment: Growth inhibition of human OVCAR5 cells at 10 uM after 48 hrs by sulforhodamine B assay; format: functional; settings: OVCAR-5, 48 h, read-out: GI
M14 = experiment: Growth inhibition of human M14 cells at 10 uM after 48 hrs by sulforhodamine B assay; format: functional; settings: M14, 48 h, read-out: GI
K562 = experiment: Growth inhibition of human K562 cells at 10 uM after 48 hrs by sulforhodamine B assay; format: functional; settings: K562, 48 h, read-out: GI

SMILES: Cc1ccc(C)c(N2CCN(c3ccncc3S(N)(=O)=O)CC2)c1
- growth inhibition (GI) (OVCAR-4): inactive
- inhibition of growth at 10 µM (Malme-3M): 15%
- growth inhibition (GI) (HCC 2998): inactive
- growth inhibition (GI) (NCI-H460): inactive
- growth inhibition (GI) (MDA-MB-435): inactive
- growth inhibition (GI) (LOX IMVI): inactive
- growth inhibition (GI) (786-0): inactive
- inhibition of growth at 10 µM (ACHN): 6%
- inhibition of growth at 10 µM (T47D): 15%
- inhibition of growth at 10 µM (TK-10): 7%
- inhibition of growth at 10 µM (SW-620): 3%
- inhibition of growth at 10 µM (IGROV-1): 6%
- growth inhibition (GI) (MDA-MB-231): inactive
- inhibition of growth at 10 µM (SNB-75): 9%
- inhibition of growth at 10 µM (UACC-62): 7%
- growth inhibition (GI) (SF-268): inactive
- growth inhibition (GI) (SN12C): inactive
- inhibition of growth at 10 µM (PC-3): 4%
- inhibition of growth at 10 µM (HCT-116): 9%
- inhibition of growth at 10 µM (SK-MEL-5): 3%
- pKi (Carbonic anhydrase 9): 6.26
- inhibition of growth at 10 µM (SF-539): 1%
- growth inhibition (GI) (RXF 393): inactive
- inhibition of growth at 10 µM (BT-549): 8%
- inhibition of growth at 10 µM (SR): 10%
- inhibition of growth at 10 µM (SF-295): 1%
- inhibition of growth at 10 µM (UO-31): 15%
- inhibition of growth at 10 µM (NCI-H322M): 7%
- inhibition of growth at 10 µM (OVCAR-8): 4%
- inhibition of growth at 10 µM (NCI-H226): 3%
- inhibition of growth at 10 µM (U-251): 20%
- growth inhibition (GI) (OVCAR-3): inactive
- inhibition of growth at 10 µM (CAKI-1): 9%
- inhibition of growth at 10 µM (A549): 2%
- growth inhibition (GI) (SK-OV-3): inactive
- growth inhibition (GI) (SK-MEL-2): inactive
- growth inhibition (GI) (DU-145): inactive
- inhibition of growth at 10 µM (MOLT-4): 11%
- growth inhibition (GI) (COLO 205): inactive
- growth inhibition (GI) (MCF7): inactive
- inhibition of growth at 10 µM (A498): 16%
- growth inhibition (GI) (CCRF-CEM): inactive
- growth inhibition (GI) (Hs-578T): inactive
- inhibition of growth at 10 µM (OVCAR-5): 3%
- inhibition of growth at 10 µM (M14): 1%

SMILES: NS(=O)(=O)c1cnccc1N1CCN(c2ccc(Cl)c(Cl)c2)CC1
- inhibition of growth at 10 µM (OVCAR-4; OVCAR-4, 48 h, read-out: GI): 65%
- inhibition of growth at 10 µM (Malme-3M): 24%
- inhibition of growth at 10 µM (NCI-H460; NCI-H460, 48 h, read-out: GI): 16%
- inhibition of growth at 10 µM (MDA-MB-435; MDA-MB-435, 48 h, read-out: GI): 32%
- inhibition of growth at 10 µM (LOX IMVI; read-out: GI): 19%
- inhibition of growth at 10 µM (786-0; 786-0, 48 h, read-out: GI): 15%
- inhibition of growth at 10 µM (ACHN): 24%
- inhibition of growth at 10 µM (T47D): 72%
- inhibition of growth at 10 µM (TK-10): 9%
- inhibition of growth at 10 µM (SW-620): 3%
- inhibition of growth at 10 µM (IGROV-1): 31%
- inhibition of growth at 10 µM (MDA-MB-231; MDA-MB-231, 48 h, read-out: GI): 21%
- inhibition of growth at 10 µM (SNB-75): 3%
- inhibition of growth at 10 µM (UACC-62): 38%
- inhibition of growth at 10 µM (SF-268; SF-268, 48 h, read-out: GI): 2%
- inhibition of growth at 10 µM (SN12C; read-out: GI): 17%
- inhibition of growth at 10 µM (PC-3): 35%
- inhibition of growth at 10 µM (HCT-116): 35%
- inhibition of growth at 10 µM (SK-MEL-5): 89%
- pKi (Carbonic anhydrase 9): 6.47
- inhibition of growth at 10 µM (SF-539): 16%
- inhibition of growth at 10 µM (RXF 393; RXF 393, 48 h, read-out: GI): 8%
- inhibition of growth at 10 µM (BT-549): 27%
- inhibition of growth at 10 µM (SR): 35%
- inhibition of growth at 10 µM (SF-295): 41%
- inhibition of growth at 10 µM (UO-31): 31%
- inhibition of growth at 10 µM (NCI-H322M): 18%
- inhibition of growth at 10 µM (K562): 65%
- inhibition of growth at 10 µM (NCI-H226): 28%
- inhibition of growth at 10 µM (OVCAR-3; OVCAR-3, 48 h, read-out: GI): 30%
- inhibition of growth at 10 µM (CAKI-1): 36%
- inhibition of growth at 10 µM (SK-OV-3; SK-OV-3, 48 h, read-out: GI): 8%
- inhibition of growth at 10 µM (SK-MEL-2; SK-MEL-2, 48 h, read-out: GI): 16%
- inhibition of growth at 10 µM (DU-145; DU-145, 48 h, read-out: GI): 7%
- inhibition of growth at 10 µM (MOLT-4): 39%
- growth inhibition (GI) (COLO 205): inactive
- inhibition of growth at 10 µM (MCF7; MCF7, 48 h, read-out: GI): 37%
- inhibition of growth at 10 µM (A498): 12%
- inhibition of growth at 10 µM (CCRF-CEM; read-out: GI): 47%
- growth inhibition (GI) (Hs-578T): inactive
- inhibition of growth at 10 µM (OVCAR-5): 1%
- inhibition of growth at 10 µM (M14): 22%
